Data as given in ChEMBL document CHEMBL3137667, “[Drug-induced liver injury; fourteenth updated edition of the bibliographic database of liver injuries and related drugs]” (Gastroenterol Clin Biol, 2004).

Assays:
[1] = Highest frequency of moderate liver toxicity observed during clinical trials, expressed as a percentage. [column '% BIOL' in source]; conditions: human
[2] = Highest frequency of acute liver toxicity observed during clinical trials, expressed as a percentage. [column '% AIGUE' in source]; conditions: human
[3] = Presence of at least one case with successful reintroduction. [column 'REINT' in source]; conditions: human
[4] = Comments (NB not yet translated). [column 'COMMENTAIRES' in source]; conditions: human
[5] = Times to onset, minimal and maximal, observed in the indexed observations. [column 'DELAI' in source]; conditions: human
[6] = Proposed mechanism(s) of liver damage. [column 'MEC' in source]; conditions: human
[7] = human, serum
[8] = human, serum; remark: listed apart in the source
[9] = human
[10] = human; remark: listed apart in the source
[11] = human; remark: listed apart in the source
[12] = human, serum, 4383 h
[13] = human; remark: listed apart in the source
[14] = human; remark: listed apart in the source
[15] = human; remark: listed apart in the source
[16] = human; remark: listed apart in the source
[17] = human; remark: listed apart in the source
[18] = human; remark: listed apart in the source
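Wherever Hepatotoxicity (association with vascular disease) is given: count of indexed literature references reporting vascular liver injury in humans, e.g. peliosis hepatitis, hepatic veno-occlusive disease or Budd-Chiari syndrome.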
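Wherever Hepatotoxicity (benign tumour) is given: value is a count of indexed literature references citing a benign tumour confirmed by histopathology.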
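Wherever Hepatotoxicity (choleostasis) is given: human cholestatic liver injury, shown by histopathology or by peak ALT or AST elevation over alkaline phosphatase ratio below 2, value counts indexed literature reports.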
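Wherever Hepatotoxicity (chronic liver disease) is given: chronic liver injury confirmed by histopathology or persistently raised serum aminotransferase activity beyond 6 months, value given as the count of indexed literature references.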
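Wherever Hepatotoxicity (cirrhosis) is given: value is a count of indexed literature references reporting cirrhosis confirmed by histopathology.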
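Wherever Hepatotoxicity (cytolytic) is given: human cytolytic liver injury, shown by histopathology or by a ratio above 5 of peak ALT or AST elevation to alkaline phosphatase elevation, value counts indexed references.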
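Wherever Hepatotoxicity (granulomatous hepatitis) is given: value is a count of indexed literature references reporting granulomatous liver disease confirmed by histopathology.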
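Wherever Hepatotoxicity (malignant tumour) is given: malignant tumour confirmed by histopathology, value gives the count of indexed literature references reporting it.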
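Wherever Hepatotoxicity (severe hepatitis) is given: human clinical data: severe hepatitis, meaning potentially life-threatening liver failure or clinically observed cases, the value counts how many indexed literature references report it.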
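Wherever Hepatotoxicity (steatosis) is given: steatosis confirmed by histopathology, value is the count of indexed references.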

O=C1NC(=O)C(c2ccccc2)(c2ccccc2)N1 [PHENYTOIN]
Hepatotoxicity (moderate) ([1]; Liver): 90% | Hepatotoxicity (acute) ([2]; Liver): 2% | Hepatotoxicity (successful reintroduction) [3]: yes | Hepatotoxicity (comment) [4]: #MNI CHOLESTASE_PROLONGEE DUCTOPENIE #CBP | Hepatotoxicity (time to onset) [5]: 1 day - 11 years | Hepatotoxicity (mechanism) ([6]; Liver): Allergic, Reactive metabolite | Hepatotoxicity (moderate) [7]: 29 | Hepatotoxicity (acute) [8]: 84 | Hepatotoxicity (cytolytic) ([9]; Liver): 53 | Hepatotoxicity (choleostasis) ([10]; Liver): 30 | Hepatotoxicity (severe hepatitis) ([11]; Liver): 14 | Hepatotoxicity (chronic liver disease) [12]: 6 | Hepatotoxicity (cirrhosis) [13]: 0 | Hepatotoxicity (granulomatous hepatitis) ([14]; Liver): 5 | Hepatotoxicity (association with vascular disease) [15]: 0 | Hepatotoxicity (steatosis) [16]: 4 | Hepatotoxicity (malignant tumour) [17]: 0 | Hepatotoxicity (benign tumour) [18]: 0

CN1C(C(=O)Nc2ccccn2)=C(O)c2ccccc2S1(=O)=O [PIROXICAM]
Hepatotoxicity (moderate) [1]: 73% | Hepatotoxicity (acute) [2]: 0.8% | Hepatotoxicity (successful reintroduction) [3]: yes | Hepatotoxicity (comment) [4]: AC_ANTI-N CHOLESTASE_PROLONGEE | Hepatotoxicity (time to onset) [5]: 3 days - 1 year | Hepatotoxicity (mechanism) [6]: Allergic, Toxic | Hepatotoxicity (moderate) [7]: 12 | Hepatotoxicity (acute) [8]: 19 | Hepatotoxicity (cytolytic) [9]: 13 | Hepatotoxicity (choleostasis) [10]: 10 | Hepatotoxicity (severe hepatitis) [11]: 5 | Hepatotoxicity (chronic liver disease) [12]: 0 | Hepatotoxicity (cirrhosis) [13]: 0 | Hepatotoxicity (granulomatous hepatitis) [14]: 1 | Hepatotoxicity (association with vascular disease) [15]: 0 | Hepatotoxicity (steatosis) [16]: 0 | Hepatotoxicity (malignant tumour) [17]: 0 | Hepatotoxicity (benign tumour) [18]: 0

CCN(CC)CCNC(=O)c1ccc(N)cc1 [PROCAINAMIDE]
Hepatotoxicity (moderate) ([1]; Liver): 0% | Hepatotoxicity (acute) ([2]; Liver): 0% | Hepatotoxicity (successful reintroduction) [3]: yes | Hepatotoxicity (comment) [4]: AC_ANTI-M3 | Hepatotoxicity (time to onset) [5]: 3 hours - 3 months | Hepatotoxicity (mechanism) [6]: Allergic | Hepatotoxicity (moderate) [7]: 1 | Hepatotoxicity (acute) [8]: 4 | Hepatotoxicity (cytolytic) [9]: 1 | Hepatotoxicity (choleostasis) [10]: 4 | Hepatotoxicity (severe hepatitis) ([11]; Liver): 0 | Hepatotoxicity (chronic liver disease) [12]: 0 | Hepatotoxicity (cirrhosis) [13]: 0 | Hepatotoxicity (granulomatous hepatitis) [14]: 4 | Hepatotoxicity (association with vascular disease) [15]: 0 | Hepatotoxicity (steatosis) [16]: 0 | Hepatotoxicity (malignant tumour) [17]: 0 | Hepatotoxicity (benign tumour) [18]: 0

CCCNCC(O)COc1ccccc1C(=O)CCc1ccccc1 (stereo not drawn) [PROPAFENONE]
Hepatotoxicity (moderate) [1]: 10.6% | Hepatotoxicity (acute) [2]: 7.7% | Hepatotoxicity (successful reintroduction) [3]: yes | Hepatotoxicity (comment) [4]: CHOLANGITE PRICHOLANGITE AC_ANTI-N | Hepatotoxicity (time to onset) [5]: 6 days - 16 months | Hepatotoxicity (mechanism) [6]: Allergic | Hepatotoxicity (moderate) [7]: 7 | Hepatotoxicity (acute) [8]: 9 | Hepatotoxicity (cytolytic) [9]: 1 | Hepatotoxicity (choleostasis) [10]: 6 | Hepatotoxicity (severe hepatitis) [11]: 0 | Hepatotoxicity (chronic liver disease) [12]: 0 | Hepatotoxicity (cirrhosis) [13]: 0 | Hepatotoxicity (granulomatous hepatitis) [14]: 0 | Hepatotoxicity (association with vascular disease) [15]: 0 | Hepatotoxicity (steatosis) [16]: 0 | Hepatotoxicity (malignant tumour) [17]: 0 | Hepatotoxicity (benign tumour) [18]: 0

CO[C@H]1/C=C/O[C@@]2(C)Oc3c(C)c(O)c4c(O)c(cc(O)c4c3C2=O)NC(=O)/C(C)=C\C=C\[C@H](C)[C@H](O)[C@@H](C)[C@@H](O)[C@@H](C)[C@H](OC(C)=O)[C@@H]1C [RIFAMYCIN]
Hepatotoxicity (moderate) [1]: 10% | Hepatotoxicity (acute) [2]: 2.3% | Hepatotoxicity (successful reintroduction) [3]: yes | Hepatotoxicity (comment) [4]: CHOLANGITE I/ISONIAZIDE | Hepatotoxicity (time to onset) [5]: 6 hours - 13 days | Hepatotoxicity (mechanism) [6]: Allergic | Hepatotoxicity (moderate) [7]: 5 | Hepatotoxicity (acute) [8]: 3 | Hepatotoxicity (cytolytic) [9]: 2 | Hepatotoxicity (choleostasis) [10]: 2 | Hepatotoxicity (severe hepatitis) [11]: 0 | Hepatotoxicity (chronic liver disease) [12]: 0 | Hepatotoxicity (cirrhosis) [13]: 0 | Hepatotoxicity (granulomatous hepatitis) [14]: 0 | Hepatotoxicity (association with vascular disease) [15]: 0 | Hepatotoxicity (steatosis) [16]: 0 | Hepatotoxicity (malignant tumour) [17]: 0 | Hepatotoxicity (benign tumour) [18]: 0

CC(C)c1nc(CN(C)C(=O)N[C@H](C(=O)N[C@@H](Cc2ccccc2)C[C@H](O)[C@H](Cc2ccccc2)NC(=O)OCc2cncs2)C(C)C)cs1 [RITONAVIR]
Hepatotoxicity (moderate) [1]: 44% | Hepatotoxicity (acute) [2]: 32.1% | Hepatotoxicity (successful reintroduction) [3]: yes | Hepatotoxicity (comment) [4]: REACTIVATION_HVB/HVC | Hepatotoxicity (time to onset) [5]: < 1 day - 6 months | Hepatotoxicity (mechanism) [6]: Dose-dependant | Hepatotoxicity (moderate) [7]: 10 | Hepatotoxicity (acute) [8]: 14 | Hepatotoxicity (cytolytic) [9]: 11 | Hepatotoxicity (choleostasis) [10]: 2 | Hepatotoxicity (severe hepatitis) [11]: 1 | Hepatotoxicity (chronic liver disease) [12]: 0 | Hepatotoxicity (cirrhosis) [13]: 0 | Hepatotoxicity (granulomatous hepatitis) [14]: 0 | Hepatotoxicity (association with vascular disease) [15]: 0 | Hepatotoxicity (steatosis) [16]: 1 | Hepatotoxicity (malignant tumour) [17]: 0 | Hepatotoxicity (benign tumour) [18]: 0

Cc1cn([C@H]2C=C[C@@H](CO)O2)c(=O)[nH]c1=O [STAVUDINE]
Hepatotoxicity (moderate) [1]: 65.6% | Hepatotoxicity (acute) [2]: 17.1% | Hepatotoxicity (successful reintroduction) [3]: yes | Hepatotoxicity (comment) [4]: REACTIVATION_HVB/HVC | Hepatotoxicity (time to onset) [5]: 6 days - 5 years | Hepatotoxicity (mechanism) [6]: Dose-dependant, Mitochondrial toxicity, Toxic | Hepatotoxicity (moderate) [7]: 13 | Hepatotoxicity (acute) [8]: 29 | Hepatotoxicity (cytolytic) [9]: 22 | Hepatotoxicity (choleostasis) [10]: 5 | Hepatotoxicity (severe hepatitis) [11]: 14 | Hepatotoxicity (chronic liver disease) [12]: 0 | Hepatotoxicity (cirrhosis) [13]: 0 | Hepatotoxicity (granulomatous hepatitis) [14]: 0 | Hepatotoxicity (association with vascular disease) [15]: 0 | Hepatotoxicity (steatosis) [16]: 25 | Hepatotoxicity (malignant tumour) [17]: 0 | Hepatotoxicity (benign tumour) [18]: 0

O=C(O)c1cc(/N=N/c2ccc(S(=O)(=O)Nc3ccccn3)cc2)ccc1O [SULFASALAZINE]
Hepatotoxicity (moderate) [1]: 26.7% | Hepatotoxicity (acute) [2]: 5.7% | Hepatotoxicity (successful reintroduction) [3]: yes | Hepatotoxicity (comment) [4]: DUCTOPENIE RC/COTRIMOXAZOLE/MESALAZINE/OLSALAZINE | Hepatotoxicity (time to onset) [5]: 1 day - 1 year | Hepatotoxicity (mechanism) [6]: Allergic | Hepatotoxicity (moderate) [7]: 44 | Hepatotoxicity (acute) [8]: 50 | Hepatotoxicity (cytolytic) [9]: 31 | Hepatotoxicity (choleostasis) [10]: 14 | Hepatotoxicity (severe hepatitis) [11]: 11 | Hepatotoxicity (chronic liver disease) [12]: 2 | Hepatotoxicity (cirrhosis) [13]: 0 | Hepatotoxicity (granulomatous hepatitis) [14]: 11 | Hepatotoxicity (association with vascular disease) [15]: 0 | Hepatotoxicity (steatosis) [16]: 1 | Hepatotoxicity (malignant tumour) [17]: 0 | Hepatotoxicity (benign tumour) [18]: 0

c1ccc2[nH]c(-c3cscn3)nc2c1 [THIABENDAZOLE]
Hepatotoxicity (moderate) [1]: 36% | Hepatotoxicity (acute) [2]: 0% | Hepatotoxicity (successful reintroduction) [3]: yes | Hepatotoxicity (comment) [4]: CHOLESTASE_PROLONGEE DUCTOPENIE #CBP | Hepatotoxicity (time to onset) [5]: 2 weeks - 1.5 years | Hepatotoxicity (mechanism) [6]: Allergic | Hepatotoxicity (moderate) [7]: 2 | Hepatotoxicity (acute) [8]: 13 | Hepatotoxicity (cytolytic) [9]: 2 | Hepatotoxicity (choleostasis) [10]: 13 | Hepatotoxicity (severe hepatitis) [11]: 0 | Hepatotoxicity (chronic liver disease) [12]: 0 | Hepatotoxicity (cirrhosis) [13]: 2 | Hepatotoxicity (granulomatous hepatitis) [14]: 0 | Hepatotoxicity (association with vascular disease) [15]: 0 | Hepatotoxicity (steatosis) [16]: 0 | Hepatotoxicity (malignant tumour) [17]: 0 | Hepatotoxicity (benign tumour) [18]: 0

O=C(O)c1cccs1 [THIOPHENE CARBOXYLIC ACID]
Hepatotoxicity (moderate) [1]: 0% | Hepatotoxicity (acute) [2]: 0% | Hepatotoxicity (successful reintroduction) [3]: yes | Hepatotoxicity (comment) [4]: AC_ANTI-ML | Hepatotoxicity (time to onset) [5]: 3 days - 3 weeks | Hepatotoxicity (mechanism) [6]: Allergic | Hepatotoxicity (moderate) [7]: 0 | Hepatotoxicity (acute) [8]: 3 | Hepatotoxicity (cytolytic) [9]: 3 | Hepatotoxicity (choleostasis) [10]: 0 | Hepatotoxicity (severe hepatitis) [11]: 0 | Hepatotoxicity (chronic liver disease) [12]: 0 | Hepatotoxicity (cirrhosis) [13]: 0 | Hepatotoxicity (granulomatous hepatitis) [14]: 0 | Hepatotoxicity (association with vascular disease) [15]: 0 | Hepatotoxicity (steatosis) [16]: 0 | Hepatotoxicity (malignant tumour) [17]: 0 | Hepatotoxicity (benign tumour) [18]: 0

CCOC(=O)NNc1nncc2ccccc12 [TODRALAZINE]
Hepatotoxicity (moderate) [1]: 0% | Hepatotoxicity (acute) [2]: 0% | Hepatotoxicity (successful reintroduction) [3]: yes | Hepatotoxicity (comment) [4]: AC_ANTI-N/-MF | Hepatotoxicity (time to onset) [5]: 11 days - 2 years | Hepatotoxicity (mechanism) [6]: Allergic | Hepatotoxicity (moderate) [7]: 0 | Hepatotoxicity (acute) [8]: 3 | Hepatotoxicity (cytolytic) [9]: 3 | Hepatotoxicity (choleostasis) [10]: 0 | Hepatotoxicity (severe hepatitis) [11]: 2 | Hepatotoxicity (chronic liver disease) [12]: 0 | Hepatotoxicity (cirrhosis) [13]: 0 | Hepatotoxicity (granulomatous hepatitis) [14]: 0 | Hepatotoxicity (association with vascular disease) [15]: 0 | Hepatotoxicity (steatosis) [16]: 0 | Hepatotoxicity (malignant tumour) [17]: 0 | Hepatotoxicity (benign tumour) [18]: 0
